Source: patent US9796753B2, “N-substituted indenoisoquinolines and syntheses thereof” (Purdue Research Foundation, priority 2005, dated 2017)
Where two headings read alike, the source gives them in different places. Each block holds one compound with its values, some of them ahead of it.

Assays:
[1] = test system: colon HCT-116; test: COMPARE screening (NCI human cancer cell line screen), cytotoxicity GI50; format: cell-based
Procedure, shortened: (§1)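 Compounds went into the NCI developmental therapeutics 60-cell-line screen at 100, 10, 1, 0.1 and 0.01 μM. After 48 h incubation, sulforhodamine B staining gave optical densities used to derive percentage growth.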

[2] = test system: renal SN12C; test: as above; format: cell-based
Procedure, shortened: as §1

[3] = test system: melanoma UACC-62; test: as above; format: cell-based
Procedure, shortened: as §1

[4] = test system: ovarian OVCAR-3; test: as above; format: cell-based
Procedure, shortened: as §1

[5] = test system: CNS SF-539; test: as above; format: cell-based
Procedure, shortened: as §1

[6] = test system: lung HOP-62; test: as above; format: cell-based
Procedure, shortened: as §1

[7] = test system: prostate DU-145; test: as above; format: cell-based
Procedure, shortened: as §1

[8] = test system: all human cancer cell lines successfully tested; test: NCI screen mean graph midpoint (MGM) for growth inhibition; format: cell-based
Procedure, shortened: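 NCI60 panel cells exposed to compound at 100, 10, 1, 0.1 and 0.01 μM for 48 h, then sulforhodamine B staining. Percentage growth versus control plotted against log concentration; MGM is the midpoint across all lines tested.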

[9] = test system: breast MDA-MB-435; test: COMPARE screening (NCI human cancer cell line screen), cytotoxicity GI50; format: cell-based; settings: Homo sapiens
[10] = test system: breast MCF-7; test: NCI60 antiproliferative activity, cytotoxicity GI50; format: cell-based, human
Procedure: Selected compounds were tested for antiproliferative activity in the National Cancer Institute's developmental therapeutics assay 60 cell line screen (NCI60). The cells were incubated with the tested compounds at 100, 10, 1, 0.1, and 0.01 μM concentrations for 48 h before treatment with sulforhodamine B dye. Optical densities were recorded, and their ratios relative to that of the control were plotted as percentage growth against the log 10 of the tested compound concentrations.

[11] = Homo sapiens, HCT-116, read-out: cytotoxicity (GI50) colon HCT-116
[12] = Homo sapiens, SN12C, read-out: cytotoxicity (GI50) renal SN12C
[13] = Homo sapiens, UACC-62, read-out: cytotoxicity (GI50) melanoma UACC-62
[14] = Homo sapiens, OVCAR-3, read-out: cytotoxicity (GI50) ovarian OVCAR-3
[15] = Homo sapiens, CNSSF-539, read-out: cytotoxicity (GI50) CNS SF-539
[16] = Homo sapiens, HOP-62, read-out: cytotoxicity (GI50) lung HOP-62
[17] = Homo sapiens, DU-145, read-out: cytotoxicity (GI50) prostate DU-145
[18] = Table 1, average GI50 of all cell lines tested (approximately 55), test range 10^−8 to 10^−4 molar
[19] = MDA-MB-435, read-out: cytotoxicity (GI50) breast MDA-MB-435

Compound: COc1cc2c(=O)n(CCCN3CCOCC3)c3c(c2cc1O)C(=O)c1cc2c(cc1-3)OCO2 [Compound 18]
GI50 [1]: 0.39 µM
GI50 [2]: 0.2 µM
GI50 [3]: 0.3 µM
GI50 [4]: 900 nM
GI50 [5]: 0.3 µM
GI50 [6]: 0.3 µM
GI50 [7]: 0.3 µM
MGM (mean GI50 across cell lines) ([8]; Table 6, all human cancer cell lines successfully tested, range 10^−8 to 10^−4 molar, with standard error): 400 ± 5 nM
GI50 [10]: 100 nM

Compound: CC[C@@]1(O)C(=O)OCc2c1cc1n(c2=O)Cc2cc3ccccc3nc2-1 [Compound S-1, camptothecin, reference compound]
GI50 ([1]; Homo sapiens, HCT-116, Table 1, concentration corresponding to 50% growth inhibition, read-out: cytotoxicity (GI50) colon HCT-116): 0.03 µM
GI50 ([1]; Homo sapiens, HCT-116, Table 6, NCI60, 48 h, sulforhodamine B, read-out: Cytotoxicity (GI50) Colon HCT-116): 0.03 µM
GI50 ([1]; Homo sapiens, colon HCT-116, concentration corresponding to 50% growth inhibition, read-out: cytotoxicity (GI50 in μM) colon HCT-116): 0.03 µM
GI50 ([2]; Homo sapiens, SN12C, Table 1, concentration corresponding to 50% growth inhibition, read-out: cytotoxicity (GI50) renal SN12C): 0.02 µM
GI50 ([2]; Homo sapiens, SN12C, Table 6, NCI60, 48 h, sulforhodamine B, read-out: Cytotoxicity (GI50) renal SN12C): 0.02 µM
GI50 ([2]; Homo sapiens, renal SN12C, concentration corresponding to 50% growth inhibition, read-out: cytotoxicity (GI50 in μM) renal SN12C): 0.02 µM
GI50 ([3]; Homo sapiens, UACC-62, Table 1, concentration corresponding to 50% growth inhibition, read-out: cytotoxicity (GI50) melanoma UACC-62): 0.01 µM
GI50 ([3]; Homo sapiens, UACC-62, Table 6, NCI60, 48 h, sulforhodamine B, read-out: Cytotoxicity (GI50) melanoma UACC-62): 0.01 µM
GI50 ([3]; Homo sapiens, melanoma UACC-62, concentration corresponding to 50% growth inhibition, read-out: cytotoxicity (GI50 in μM) melanoma UACC-62): 0.01 µM
GI50 ([5]; Homo sapiens, CNSSF-539, CNS SF-539, concentration corresponding to 50% growth inhibition, read-out: cytotoxicity (GI50 in μM) CNS SF-539): 0.01 µM
GI50 ([5]; Homo sapiens, CNSSF-539, Table 1, concentration corresponding to 50% growth inhibition, read-out: cytotoxicity (GI50) CNS SF-539): 0.01 µM
GI50 ([6]; Homo sapiens, HOP-62, Table 1, concentration corresponding to 50% growth inhibition, read-out: cytotoxicity (GI50) lung HOP-62): 0.01 µM
GI50 ([6]; Homo sapiens, HOP-62, Table 6, NCI60, 48 h, sulforhodamine B, read-out: Cytotoxicity (GI50) lung HOP-62): 0.01 µM
GI50 ([6]; Homo sapiens, lung HOP-62, concentration corresponding to 50% growth inhibition, read-out: cytotoxicity (GI50 in μM) lung HOP-62): 0.01 µM
GI50 ([7]; Homo sapiens, DU-145, Table 1, concentration corresponding to 50% growth inhibition, read-out: cytotoxicity (GI50) prostate DU-145): 0.01 µM
GI50 ([7]; Homo sapiens, DU-145, Table 6, NCI60, 48 h, sulforhodamine B, read-out: Cytotoxicity (GI50) prostate DU-145): 0.01 µM
GI50 ([7]; Homo sapiens, prostate DU-145, concentration corresponding to 50% growth inhibition, read-out: cytotoxicity (GI50 in μM) prostate DU-145): 0.01 µM
GI50 ([8]; Homo sapiens, read-out: MGM GI50): 40.5 ± 18.7 nM
MGM (mean graph midpoint for growth inhibition) [8, 18]: .0405 ± 0.0187 µM
GI50 ([8]; all human cancer cell lines successfully tested, read-out: MGM (mean graph midpoint for growth inhibition)): 40.5 ± 18.7 nM
GI50 ([10]; Homo sapiens, MCF7, Table 6, NCI60, 48 h, sulforhodamine B, read-out: Cytotoxicity (GI50) breast MCF-7): 10 nM
GI50 ([9]; MDA-MB-435, Table 1, concentration corresponding to 50% growth inhibition, read-out: cytotoxicity (GI50) breast MDA-MB-435): 0.04 µM
GI50 ([9]; breast MDA-MB-435, concentration corresponding to 50% growth inhibition, read-out: cytotoxicity (GI50 in μM) breast MDA-MB-435): 0.04 µM

Compound: Cl.NCCCCCCCCCCCn1c2c(c3ccccc3c1=O)C(=O)c1ccccc1-2 [Compound 5au, 6-(11-Aminoundecyl)-5,6-dihydro-5,11-dioxo-11H-indeno[1,2-c]isoquinoline Hydrochloride]
GI50 [1, 11]: 1.91 µM
GI50 [2, 12]: 2 µM
GI50 [3, 13]: 1.7 µM
GI50 [4, 14]: 2090 nM
GI50 [5, 15]: 2.04 µM
GI50 [6, 16]: 2.19 µM
GI50 [7, 17]: 4.57 µM
melting point: 125 to 129 °C
MGM (mean GI50 across cell lines) [8, 18]: 5130 nM
GI50 [9, 19]: 11 µM

Now from value to compound, other results behind:

melting point: 182 to 185 °C
Compound: Cl.NCCCCCCCCn1c2c(c3ccccc3c1=O)C(=O)c1ccccc1-2 [Compound 5ar, 6-(8-Aminooctyl)-5,6-dihydro-5,11-dioxo-11H-indeno[1,2-c]isoquinoline Hydrochloride]
GI50 [1, 11]: 1.66 µM
GI50 [2, 12]: 3.47 µM
GI50 [3, 13]: 3.8 µM
GI50 [4, 14]: 3470 nM
GI50 [5, 15]: 2.82 µM
GI50 [6, 16]: 2.14 µM
GI50 [7, 17]: 3.39 µM
MGM (mean GI50 across cell lines) [8, 18]: 3710 nM
GI50 [9, 19]: 5.62 µM

melting point: 228 to 231 °C
Compound: Cl.NCCCCCCCn1c2c(c3ccccc3c1=O)C(=O)c1ccccc1-2 [Compound 5aq, 6-(7-Aminoheptyl)-5,6-dihydro-5,11-dioxo-11H-indeno[1,2-c]isoquinoline Hydrochloride]
GI50 [1, 11]: 1.26 µM
GI50 [2, 12]: 1.66 µM
GI50 [3, 13]: 2 µM
GI50 [4, 14]: 1700 nM
GI50 [5, 15]: 1.78 µM
GI50 [6, 16]: 1.2 µM
GI50 [7, 17]: 0.832 µM
MGM (mean graph midpoint for growth inhibition) [8, 18]: 1.66 ± 0.155 µM
GI50 [9, 19]: 2.24 µM

melting point: 189 to 192 °C
Compound: Cl.NCCCCCCCCCCn1c2c(c3ccccc3c1=O)C(=O)c1ccccc1-2 [Compound 5at, 6-(10-Aminodecyl)-5,6-dihydro-5,11-dioxo-11H-indeno[1,2-c]isoquinoline Hydrochloride]
GI50 [1, 11]: 2.75 µM
GI50 [2, 12]: 3.31 µM
GI50 [3, 13]: 13.8 µM
GI50 [4, 14]: 10700 nM
GI50 [5, 15]: 1.82 µM
GI50 [6, 16]: 4.79 µM
GI50 [7, 17]: 3.47 µM
MGM (mean GI50 across cell lines) [8, 18]: 5500 nM
GI50 [9, 19]: 11.7 µM

melting point: 204 to 207 °C
Compound: Cl.NCCCCCCCCCn1c2c(c3ccccc3c1=O)C(=O)c1ccccc1-2 [Compound 5as, 6-(9-Aminononyl)-5,6-dihydro-5,11-dioxo-11H-indeno[1,2-c]isoquinoline Hydrochloride]
GI50 [1, 11]: 6.46 µM
GI50 [2, 12]: 8.51 µM
GI50 [3, 13]: 9.33 µM
GI50 [4, 14]: 9550 nM
GI50 [5, 15]: 9.77 µM
GI50 [6, 16]: 6.76 µM
GI50 [7, 17]: 6.03 µM
MGM (mean GI50 across cell lines) [8, 18]: 8130 nM
GI50 [9, 19]: 9.55 µM
